From US11098071B2, “GPR84 receptor antagonist and use thereof” (SHANGHAI INSTITUTE OF MATERIA MEDICA, CHINESE ACADEMY OF …, priority 2017, dated 2021)
Read-outs that look alike come from different tables or passages of the source.

Target: T1, GPR84 (Homo sapiens, UniProt Q9NQS5)
T1 construct: expressed in transfected cells; host or cells: HEK293
Experiment: GPR84 calcium flow model (antagonism of agonist 6-OAU, Fluo-4 fluorescence)
Type: cell-based
Procedure: GPR84 antagonistic activity of the compounds of the invention was determined.
The human GPR84 cell line was obtained by transfecting a HEK293 cell line with a plasmid encoding GPR84 and Gα16 proteins. Fluorescent dye Fluo-4AM was purchased from Invitrogen.
Intracellular Ca^2+ ion is a very important second messenger of G protein-coupled receptor signaling pathway. […] Fluo-4 is a Ca^2+ ion-specific fluorescent probe that binds quantitatively to Ca^2+ ions and emits fluorescence. Therefore, the agonistic or antagonistic activity of the compound can be detected in a 96-well or 384-well flat-bottomed microplate using a fluorescence assay.
Detection of receptor inhibitory effect by GPR84 antagonist: After incubated with fluorescent dye Fluo-4, GPR84 cells were incubated with different concentrations of antagonistic compounds for a period of time to occupy the binding site of agonist to GPR84 (antagonistic binding site). A certain concentration of agonist (6-OAU) was added to compete with the antagonist compound for binding sites. […] The half-inhibitory concentration (IC50) of the compound was calculated by using GraphPad PRISM software.
The above ingredients were weighed and dissolved in ultrapure water. pH was adjusted to 7.4 by using hydrochloric acid or NaOH solution. The mixture was filtered and stored at 4° C. for one month.
The buffer was prepared on site.
The preparation of each milliliter of dye is as follows. 1 μL of 2 mM Fluo-4 AM was mixed with 10 μL of 3% Cremophor EL, then diluted with 1 mL of calcium buffer and mixed.
The cells were seeded at a density of 40,000 cells/well into a 96-well cell culture plate, and cultured for 24 hours or more to a cell density of 80 to 90% for experimental detection. The culture medium in the well to be tested was removed and 40 μL/well of freshly prepared dye was added and incubated in a 37-degree incubator for 40 min to 50 min.
The compound was formulated during cell incubation (this step can also be carried out in advance). The compound used as antagonist was diluted with calcium buffer freshly prepared before the experiment to 1.5 times of the final working concentration. The compound as agonist was diluted to 3 times of the final working concentration (if the compound is dissolved in DMSO, the final work concentration of DMSO shall not exceed 1%).
After the incubation step was completed, the dye was discarded, and the residue was washed with calcium buffer once and then replaced with 50 μL of calcium buffer containing different concentrations of antagonist and incubated for another 10 min.

[1] = HEK293 cell line transfected with GPR84 and Gα16, agonist 6-OAU, Fluo-4, read-out: IC50 of the compound detected by the GPR84 calcium flow model

T1 sequence (Q9NQS5 whole entry): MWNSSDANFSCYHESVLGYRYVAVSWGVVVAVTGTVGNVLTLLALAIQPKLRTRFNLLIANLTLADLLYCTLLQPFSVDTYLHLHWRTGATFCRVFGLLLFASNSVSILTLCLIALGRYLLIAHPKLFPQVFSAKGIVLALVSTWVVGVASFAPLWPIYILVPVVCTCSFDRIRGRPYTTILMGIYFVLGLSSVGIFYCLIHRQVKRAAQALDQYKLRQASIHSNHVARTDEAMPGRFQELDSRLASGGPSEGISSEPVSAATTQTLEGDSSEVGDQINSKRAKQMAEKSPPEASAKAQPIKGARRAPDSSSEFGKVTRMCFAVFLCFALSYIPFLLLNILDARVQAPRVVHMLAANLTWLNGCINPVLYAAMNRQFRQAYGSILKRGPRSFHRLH

Row | SMILES | IC50 [1] | IC50
1 | CN1c2ccccc2C=C(OP(=O)(O)OC2=Cc3ccccc3N(C)c3ccccc32)c2ccccc21 [CLH508] | 0.1 to 1 µM | 
2 | O=P(O)(OC1=Cc2ccccc2Sc2sccc21)OC1=Cc2ccccc2Sc2sccc21 [CLH548] | 0.0001 to 0.1 µM | 
3 | COc1ccc(OC)c2c1Sc1ccccc1C=C2OP(=O)(O)OC1=Cc2ccccc2Sc2c(OC)ccc(OC)c21 [CLH656a] | 0.1 to 1 µM | 
4 | COc1ccc2c(c1)C(OP(=O)(O)OC1=Cc3ccccc3Sc3ccc(OC)cc31)=Cc1ccccc1S2 [CLH596c] | 0.0001 to 0.1 µM | 
5 | CCOC(=O)C(C)c1ccc2c(c1)C=C(OP(=O)(O)OC1=Cc3ccccc3Sc3c(OC)cccc31)c1ccccc1S2 (stereo not drawn) [CLH666] | 0.0001 to 0.1 µM | 
6 | COc1cccc2c1Sc1ccccc1C=C2OP(=O)(O)OC1=Cc2ccccc2Sc2c(O)cccc21 [CLH582] | 0.0001 to 0.1 µM | 
7 | O=P(O)(OC1=Cc2ccccc2Sc2c(O)cccc21)OC1=Cc2ccccc2Sc2c(O)cccc21 [CLH568] | 0.0001 to 0.1 µM | 
8 | O=P(O)(OC1=CC2=C(CCCC2)Sc2ccccc21)OC1=CC2=C(CCCC2)Sc2ccccc21 [CLH544] | 0.1 to 1 µM | 
9 | O=P(O)(OC1=Cc2ccccc2SC2=C1CCCC2)OC1=Cc2ccccc2SC2=C1CCCC2 [CLH544a] | 0.1 to 1 µM | 
10 | C=C1c2ccccc2C=C(OP(=O)(O)OC2=Cc3ccccc3C(=C)c3ccccc32)c2ccccc21 [CLH524a] | 0.1 to 1 µM | 
11 | CC(C(=O)O)c1ccc2c(c1)C=C(OP(=O)(O)OC1=Cc3cc(C(C)C(=O)O)ccc3Sc3ccccc31)c1ccccc1S2 (stereo not drawn) [CLH680] | 1 to 10 µM | 
12 | COc1cccc2c1Oc1ccccc1C=C2OP(=O)(O)OC1=Cc2ccccc2Oc2c(OC)cccc21 [XYF564-2a] | 0.0001 to 0.1 µM | 
13 | O=P(O)(OC1=Cc2ccccc2Sc2ccc(F)cc21)OC1=Cc2ccccc2Sc2ccc(F)cc21 [CLH572c] | 0.1 to 1 µM | 
14 | CC(C)Oc1cccc2c1Sc1ccccc1C=C2OP(=O)(O)OC1=Cc2ccccc2Sc2c(OC(C)C)cccc21 [CLH652] | 0.1 to 1 µM | 
15 | O=P(O)(OC1=Cc2ccccc2C2(OCCO2)c2ccccc21)OC1=Cc2ccccc2C2(OCCO2)c2ccccc21 [CLH616a] | 0.1 to 1 µM | 
16 | O=P(O)(OC1=Cc2ccccc2S(=O)(=O)c2ccccc21)OC1=Cc2ccccc2S(=O)(=O)c2ccccc21 [CLH600] | 1 to 10 µM | 

Row | SMILES | IC50 [1] | IC50
17 | O=P(O)(OC1=Cc2ccccc2Sc2cc(F)ccc21)OC1=Cc2ccccc2Sc2cc(F)ccc21 [CLH572b] | 0.1 to 1 µM | 
18 | CC1c2ccccc2C=C(OP(=O)(O)OC2=Cc3ccccc3C(C)c3ccccc32)c2ccccc21 (stereo not drawn) [CLH528a] | 0.1 to 1 µM | 
19 | COc1cc2c(cc1OC)C(OP(=O)(O)OC1=Cc3ccccc3Sc3cc(OC)c(OC)cc31)=Cc1ccccc1S2 [CLH656] | 0.0001 to 0.1 µM | 
20 | O=P(O)(OC1=Cc2ccccc2[S+]([O-])c2ccccc21)OC1=Cc2ccccc2S(=O)(=O)c2ccccc21 (stereo not drawn) [CLH584] | 1 to 10 µM | 
21 | O=P(O)(OC1=Cc2ccccc2Sc2ccccc21)OC1=Cc2ccccc2Sc2ccccc21 [CLH514] | 0.0001 to 0.1 µM | 
22 | O=P(O)(Oc1cc2ccccc2c2ccccc12)Oc1cc2ccccc2c2ccccc12 [CLH472] |  | 1 to 10 µM
23 | O=P(O)(Oc1c2ccccc2cc2ccccc12)Oc1c2ccccc2cc2ccccc12 [CLH472a] |  | 0.1 to 1 µM
24 | COc1ccc2c(c1)Sc1ccccc1C=C2OP(=O)(O)OC1=Cc2ccccc2Sc2cc(OC)ccc21 [CLH596b] | 0.0001 to 0.1 µM | 
25 | COc1cccc2c1Cc1ccccc1C=C2OP(=O)(O)OC1=Cc2ccccc2Cc2c(OC)cccc21 [CLH560] | 0.0001 to 0.1 µM | 
26 | O=P(O)(OC1=Cc2ccccc2Oc2ccccc21)OC1=Cc2ccccc2Oc2ccccc21 [CLH482] | 0.1 to 1 µM | 
27 | O=P(O)(OC1=Cc2ccccc2Sc2c(F)cccc21)OC1=Cc2ccccc2Sc2c(F)cccc21 [CLH572a] | 0.1 to 1 µM | 
28 | COc1cccc2c1Sc1ccccc1C=C2OP(=O)(O)OC1=Cc2cc(C(C)C(=O)O)ccc2Sc2ccccc21 (stereo not drawn) [CLH638] | 0.0001 to 0.1 µM | 
29 | CCOC(=O)C(C)c1ccc2c(c1)C=C(OP(=O)(O)OC1=Cc3cc(C(C)C(=O)OCC)ccc3Sc3ccccc31)c1ccccc1S2 (stereo not drawn) [CLH736] | 1 to 10 µM | 
30 | O=P(O)(O/C1=C/c2ccccc2/C=C\c2ccccc21)O/C1=C/c2ccccc2/C=C\c2ccccc21 [CLH524] | 0.1 to 1 µM | 
31 | CCOc1cccc2c1Sc1ccccc1C=C2OP(=O)(O)OC1=Cc2ccccc2Sc2c(OCC)cccc21 [CLH624] | 0.0001 to 0.1 µM | 

Second part, led by results:

Row | IC50 [1] | SMILES | IC50
32 | 0.1 to 1 µM | O=P(O)(O/C1=C/c2ccccc2CCc2ccccc21)O/C1=C/c2ccccc2CCc2ccccc21 [XYF528] | 
33 | 0.0001 to 0.1 µM | O=P(O)(OC1=Cc2cc(Cl)ccc2Sc2ccccc21)OC1=Cc2cc(Cl)ccc2Sc2ccccc21 [XYF604b] | 
34 | 0.0001 to 0.1 µM | O=P(O)(OC1=Cc2c(F)cccc2Sc2ccccc21)OC1=Cc2c(F)cccc2Sc2ccccc21 [XYF573c] | 
35 | 0.1 to 1 µM | O=P(O)(OC1=Cc2ccsc2Sc2sccc21)OC1=Cc2ccsc2Sc2sccc21 [XYF560] | 
36 | 0.0001 to 0.1 µM | COc1cccc2c1Sc1c(F)cccc1C=C2OP(=O)(O)OC1=Cc2cccc(F)c2Sc2c(OC)cccc21 [XYF632a] | 
37 | 0.0001 to 0.1 µM | COc1cccc2c1SC1=C(C=C2OP(=O)(O)OC2=CC3=C(SCC3)Sc3c(OC)cccc32)CCS1 [XYF608] | 
38 | 0.1 to 1 µM | COc1cccc2c1Sc1c(OC)cccc1C(OP(=O)(O)OC1=Cc3cccc(OC)c3Sc3c(OC)cccc31)=C2 [XYF656a] | 
39 | 0.0001 to 0.1 µM | Cc1ccc2c(c1)C(OP(=O)(O)OC1=Cc3ccccc3Sc3ccc(C)cc31)=Cc1ccccc1S2 [XYF564c] | 
40 | 0.0001 to 0.1 µM | COc1ccc2c(c1)Sc1c(OC)cccc1C(OP(=O)(O)OC1=Cc3ccc(OC)cc3Sc3c(OC)cccc31)=C2 [XYF656] | 
41 | 0.0001 to 0.1 µM | CCc1cccc2c1Sc1c(F)cccc1C=C2OP(=O)(O)OC1=Cc2cccc(F)c2Sc2c(CC)cccc21 [XYF628a] | 
42 | 0.1 to 1 µM | O=P(O)(OC1=Cc2ccc(F)cc2Sc2ccccc21)OC1=Cc2ccc(F)cc2Sc2ccccc21 [XYF573] | 
43 | 0.0001 to 0.1 µM | O=P(O)(OC1=Cc2c(F)cccc2Oc2ccccc21)OC1=Cc2c(F)cccc2Oc2ccccc21 [XYF540] | 
44 | 0.0001 to 0.1 µM | O=P(O)(OC1=Cc2c(F)cccc2Cc2ccccc21)OC1=Cc2c(F)cccc2Cc2ccccc21 [XYF536c] | 
45 | 1 to 10 µM | O=P(O)(CC1=Cc2ccccc2Sc2ccccc21)CC1=Cc2ccccc2Sc2ccccc21 [XYF532] | 
46 | 0.1 to 1 µM | O=P(O)(OC1=Cc2cccc(F)c2Sc2ccccc21)OC1=Cc2cccc(F)c2Sc2ccccc21 [XYF573a] | 
47 | 0.0001 to 0.1 µM | COc1cccc2c1Sc1ccc(F)cc1C=C2OP(=O)(O)OC1=Cc2cc(F)ccc2Sc2c(OC)cccc21 [XYF632b] | 
48 | 0.0001 to 0.1 µM | COc1cccc2c1Sc1cccc(F)c1C=C2OP(=O)(O)OC1=Cc2c(F)cccc2Sc2c(OC)cccc21 [XYF632c] | 
49 | 0.1 to 1 µM | O=P(O)(OC1=Cc2cccc(Cl)c2Sc2ccccc21)OC1=Cc2cccc(Cl)c2Sc2ccccc21 [XYF604] | 
50 | 0.0001 to 0.1 µM | COc1cccc2c1Sc1cc(F)ccc1C=C2OP(=O)(O)OC1=Cc2ccc(F)cc2Sc2c(OC)cccc21 [XYF632] | 
51 | 0.0001 to 0.1 µM | CCc1cccc2c1Sc1ccccc1C=C2OP(=O)(O)OC1=Cc2ccccc2Sc2c(CC)cccc21 [XYF628c] | 
52 | 0.0001 to 0.1 µM | O=P(O)(OC1=Cc2cc(F)ccc2Sc2ccccc21)OC1=Cc2cc(F)ccc2Sc2ccccc21 [XYF573b] | 
53 | 1 to 10 µM | CCc1cccc2c1Sc1cc(F)ccc1C=C2OP(=O)(O)OC1=Cc2ccc(F)cc2Sc2c(CC)cccc21 [XYF628] | 
54 | 0.1 to 1 µM | CCc1cccc2c1Sc1ccc(F)cc1C=C2OP(=O)(O)OC1=Cc2cc(F)ccc2Sc2c(CC)cccc21 [XYF628b] | 
